According to patent EP4389156A1, “RA[…] LIGAND COMPOUNDS AND PRECURSORS THEREOF” (Technische Universität München, priority 2022, dated 2024):

Tests used:
[1] = target: T1, human serum albumin (HSA) (Homo sapiens, UniProt P02768); assay: HSA binding by high performance affinity chromatography (HPAC); format: in vitro ADME; conditions: uncomplexed compounds, n = 1
T1 construct: purchased Daicel, Tokyo, Japan H13H-2433
Description: HSA binding of the uncomplexed PSMA ligands was determined according to a previously published procedure via HPLC (Valko, K.; Nunhuck, S.; Bevan, C.; Abraham, M. H.; Reynolds, D. P., Fast gradient HPLC method to determine compounds binding to human serum albumin. Relationships with octanol/water and immobilized artificial membrane lipophilicity. J Pharm Sci. 2003, 92, 2236-2248). A Chiralpak HSA column (50 × 3 mm, 5 µm, H13H-2433, Daicel, Tokyo, Japan) was used at a constant flow rate of 0.5 mL/min at rt. Mobile phase A was a freshly prepared 50 mM aqueous solution of NH4OAc (pH 6.9) and mobile phase B was isopropanol (HPLC grade, VWR). The applied gradient for all experiments was 100% A (0 to 3 min), followed by 80% A (3 to 40 min). Prior to the experiment, the column was calibrated using nine reference substances with a HSA binding, known from literature, in the range of 13 to 99% (Valko, K.; Nunhuck, S.; Bevan, C.; Abraham, M. H.; Reynolds, D. P., J Pharm Sci. 2003, 92, 2236-2248; Yamazaki, K.; Kanaoka, M., Computational prediction of the plasma protein-binding percent of diverse pharmaceutical compounds. J Pharm Sci. 2004, 93, 1480-1494). All substances, including the examined PSMA ligands, were dissolved in a 1:1 mixture (v/v) of isopropanol and a 50 mM aqueous solution of NH4OAc (pH 6.9) with a final concentration of 0.5 mg/mL. Non-linear regression was established with the OriginPro 2016G software (Northampton, United States).

LNCaP cells = assay: PSMA-mediated internalization into LNCaP cells; format: cell-based; conditions: 1 h
Description: (§1) Competitive binding studies were carried out in analogy to a previously reported procedure. As a modification the non-radiolabeled standard competitor (((S)-1-carboxy-5-(4-(iodo)benzamido)pentyl)carbamoyl)-L-glutamic acid (IBA-KuE) was applied in increasing concentrations (10^-5 - 10^-11 M/well, n = 3 each) whereas the novel PSMA-binding compounds of interest were applied as ^99mTc-labeled radioligands (0.2 nM/well). In this inversed experimental approach, higher values correspond to higher affinities and are referred to as inverse IC50. Poly-L-lysine coated 24-well plates were used (n = 3). Data are given as mean ± SD. To determine the cellular uptake of the ^99mTc-labeled PSMA ligands into LNCaP cells by means of PSMA-mediated internalization at 1 h, a previously reported protocol was applied with assay concentrations of 1.0 nM and 0.2 nM for ^99mTc-labeled PSMA ligands and the reference compound [^125I]IBA-KuE, respectively. Data are corrected for non-specific binding and normalized to the specific internalization of the reference. Results are given as mean ± SD.

[2] = Lipophilicity (logD7.4), shake-flask method; format: physicochemical; conditions: n-octanol/PBS (pH 7.4), n = 8, mean ± SD
Description: The lipophilicity of ^99mTc-labeled PSMA ligands, expressed as distribution coefficient (logD7.4), was determined using the shake-flask method. A solution of approximately 1 MBq of radioligand in 1 mL of a 1:1 mixture of PBS (pH = 7.4) and n-octanol (n = 8) was vortexed vigorously for 3 min. After centrifugation at 9000 rpm for 5 min aliquots of both phases (200 µL n-octanol, 50 µL PBS) were collected and the activity was quantified in a γ-counter. logD7.4 values were calculated as decadic logarithm of the activity concentration ratio between the n-octanol phase and the aqueous phase. Data are given as mean ± standard deviation (SD). Binding to human plasma was determined by incubation of radioligands in human plasma (2 nM concentration, 37 °C for 30 min) and subsequent ultrafiltration (250 µL aliquots, 3200 rpm, 40 min) in Centrifree® ultrafiltration devices (Merck Millipore, Cork, Ireland). The fraction bound to human plasma proteins was calculated as the ratio of unfiltered activity and the total activity in the ultrafiltration device. Measurements were performed in three independent experiments, each with two replicates (n = 6, data are given as mean ± SD). All values were corrected for non-specific binding (control experiments in PBS).

PSMA = target: T2, PSMA (Homo sapiens, UniProt Q04609); assay: Competitive binding study, inverse IC50 (99mTc-radioligand versus increasing IBA-KuE); conditions: inverse IC50: IBA-KuE competes against 99mTc-radioligand (0.2 nM/well); higher values = higher affinity; 1 h, 4°C, n = 3, mean ± SD; read-out: IC50, inv.
T2 construct: endogenous in cells; printed for the internalization assay of the same paragraph
Description: as §1

T1 sequence (P02768 25-609): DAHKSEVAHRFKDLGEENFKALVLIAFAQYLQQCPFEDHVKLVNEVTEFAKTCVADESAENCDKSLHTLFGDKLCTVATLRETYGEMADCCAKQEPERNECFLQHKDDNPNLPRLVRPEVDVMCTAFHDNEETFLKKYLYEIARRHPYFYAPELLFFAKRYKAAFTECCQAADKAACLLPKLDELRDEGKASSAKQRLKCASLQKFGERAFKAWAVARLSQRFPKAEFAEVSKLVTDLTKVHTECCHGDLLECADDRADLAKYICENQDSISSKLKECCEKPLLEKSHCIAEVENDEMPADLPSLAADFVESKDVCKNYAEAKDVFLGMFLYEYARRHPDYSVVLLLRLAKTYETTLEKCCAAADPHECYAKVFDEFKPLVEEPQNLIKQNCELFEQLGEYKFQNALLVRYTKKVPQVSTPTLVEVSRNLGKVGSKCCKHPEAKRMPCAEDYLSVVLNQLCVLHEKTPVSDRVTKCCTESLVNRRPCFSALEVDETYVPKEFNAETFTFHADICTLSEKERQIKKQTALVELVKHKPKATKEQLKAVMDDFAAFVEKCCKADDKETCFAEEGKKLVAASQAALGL
T2 sequence (Q04609 whole entry): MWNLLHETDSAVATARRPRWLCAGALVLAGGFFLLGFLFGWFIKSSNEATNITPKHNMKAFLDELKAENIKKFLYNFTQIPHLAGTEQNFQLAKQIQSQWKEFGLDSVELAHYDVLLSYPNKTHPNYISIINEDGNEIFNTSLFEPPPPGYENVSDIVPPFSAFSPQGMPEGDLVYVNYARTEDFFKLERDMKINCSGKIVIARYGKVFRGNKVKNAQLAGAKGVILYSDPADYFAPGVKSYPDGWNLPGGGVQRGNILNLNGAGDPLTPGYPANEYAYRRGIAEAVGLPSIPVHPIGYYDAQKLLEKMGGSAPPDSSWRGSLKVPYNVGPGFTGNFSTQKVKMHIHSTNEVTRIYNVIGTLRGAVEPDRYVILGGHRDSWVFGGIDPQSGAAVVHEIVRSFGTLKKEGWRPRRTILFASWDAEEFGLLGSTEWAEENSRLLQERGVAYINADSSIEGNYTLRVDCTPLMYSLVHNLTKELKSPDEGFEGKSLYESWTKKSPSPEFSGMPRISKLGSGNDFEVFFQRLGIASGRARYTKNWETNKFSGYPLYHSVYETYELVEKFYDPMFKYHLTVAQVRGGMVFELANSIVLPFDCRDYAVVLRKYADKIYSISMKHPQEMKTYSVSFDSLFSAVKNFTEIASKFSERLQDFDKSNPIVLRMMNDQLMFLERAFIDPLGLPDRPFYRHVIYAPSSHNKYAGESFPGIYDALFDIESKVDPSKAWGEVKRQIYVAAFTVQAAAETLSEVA

CC(C)(C)[Si](O)(c1ccc(C(=O)NC[C@@H](NC(=O)[C@@H](CCC(=O)O)NC(=O)C(CNCCN)CNCCN)C(=O)N[C@H](CCCCNC(=O)CCC(=O)NCCC[C@@H](NC(=O)CC[C@H](NC(=O)N[C@@H](CCC(=O)O)C(=O)O)C(=O)O)C(=O)O)C(=O)O)cc1)C(C)(C)C.[O]=[99Tc+]=[O] [[^99mTc]Tc-N4-PSMA-12]
HSA-binding (HPAC) (%) [1]: 47.7%
internalization (% IBA-KuE) (LNCaP cells; 37°C, n = 3, as percentage of reference [125I]IBA-KuE, mean ± SD): 311 ± 16%
fold higher internalization than [^99mTc]Tc-N4-PSMA-13 (LNCaP cells; relative to [^99mTc]Tc-N4-PSMA-13): 1.9 fold
fold higher internalization than [^99mTc]Tc-N4-PSMA-21 (LNCaP cells; relative to [^99mTc]Tc-N4-PSMA-21): 1.7 fold
fold higher internalization than [^99mTc]Tc-PSMA-I&S (LNCaP cells; relative to [^99mTc]Tc-PSMA-I&S): 1.3 fold
logD7.4 [2]: -3.35 ± 0.05
inverse IC50 (PSMA): 11 ± 2.8 nM
